# PMC4214736, “Identification of a Novel Drug Lead That Inhibits HCV Infection and Cell-to-Cell Transmission by Targeting the HCV E2 Glycoprotein” (PLoS ONE, 2014)
# Legend:
# [1] = molecular target: T1, recombinant HCV E2 protein (Con1eE2, eE2) (Hepatitis C virus (isolate Con1), UniProt Q9WMX2); experiment: SPR single concentration screen (Biacore T100, CM5 chip); type: binding; conditions: 200 µM ligand in PBS; E2 immobilised by amine coupling (about 10,000 RU)
# T1 construct: E2 ectodomain residues 384-656 cut from the HCV genome polyprotein; C-terminal Protein A tag removed by PreScission protease; secreted from HEK293T cells (lentiviral)
# Description: SPR single concentration screen (Biacore T100, CM5 chip) on recombinant HCV E2 protein (Con1eE2, eE2)
# [2] = molecular target: T1, recombinant HCV E2 protein (Con1eE2, eE2); experiment: SPR single cycle kinetics (Biacore T100, CM5 chip); type: binding
# his-tagged CD81-LEL = molecular target: T2, his-tagged CD81-LEL (Homo sapiens, UniProt P60033); experiment: SPR single cycle kinetics (Biacore T100, CM5 chip); type: binding
# T2 construct: His-tagged, commercial (Bioclone Inc.)
# T2 sequence (P60033 113-201 limits assumed): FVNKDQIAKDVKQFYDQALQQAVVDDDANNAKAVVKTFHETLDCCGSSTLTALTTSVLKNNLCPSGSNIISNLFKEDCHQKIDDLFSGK
# [3] = molecular target: T3, HCV E2 protein binding to GST-tagged human CD81-LEL (Hepatitis C virus (isolate Con1), UniProt Q9WMX2); experiment: ELISA, inhibition of E2 binding to immobilised CD81-LEL
# T3 construct: with CD81 antigen (Homo sapiens)
# [4] = molecular target: HCV E2 protein Con1 eE2 (envelope protein 2 ectodomain, amino acids 384-656) (Hepatitis C virus, isolate Con1 (genotype 1)) (UniProt Q9WMX2); experiment: SPR; Biacore T100; HCV E2 (1 µM in 10 mM sodium acetate pH 5) immobilised on a CM5 chip by amine coupling, about 10,000 RU; his-CD81 (50 nM) in PBS injected as positive control
# HCV E2 protein Con1 eE2 (envelope protein 2 ectodomain, amino acids 384-656) (Hepatitis C virus, isolate Con1 (genotype 1)), sequence (Q9WMX2 384-656): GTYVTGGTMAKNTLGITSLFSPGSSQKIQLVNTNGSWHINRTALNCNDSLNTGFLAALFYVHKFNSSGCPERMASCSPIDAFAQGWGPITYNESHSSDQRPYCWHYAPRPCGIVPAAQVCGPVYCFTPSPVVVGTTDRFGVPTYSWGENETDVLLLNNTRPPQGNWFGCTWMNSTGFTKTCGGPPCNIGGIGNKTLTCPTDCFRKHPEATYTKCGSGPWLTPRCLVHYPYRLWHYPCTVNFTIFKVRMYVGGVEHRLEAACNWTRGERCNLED
# T1 sequence (Q9WMX2 384-656): as above
# T3 sequence (Q9WMX2 384-656, one chain of several): as the sequence (Q9WMX2 384-656) above
Compound,Binding (RU) [1] [RU],also measured
"Nc1nc(N)nc(-c2ccccc2-c2nc(N)nc(N)n2)n1 [compound 4429, NSC# 4429]",155.3,–
"Cc1nc(/N=C(/N)N(C)C)[nH]c(=O)c1C [compound 113486, NSC# 113486]",104.7,–
"CC1(C)N=C(N)N=C(N)N1c1ccc(OCCCOc2ccccc2)c(Cl)c1.CCS(=O)(=O)O [compound 133071, NSC# 133071]",276.3,–
"COc1ccc(C2=CC(c3ccc(OC)c(OC)c3)c3c(c4ccccc4oc3=O)O2)cc1OC (stereo not drawn) [compound 211490, NSC# 211490]",102.9,–
"CSc1ccc2c(c1)C(N1CCN(C)CC1)Cc1ccccc1S2 (stereo not drawn) [compound 281816, 1-methyl-4-(3-methylsulfanyl-5,6-dihydrobenzo[b] [1]benzothiepin-5-yl)piperazine]",–,Kd [2]: 41 µM; Kd (his-tagged CD81-LEL): 57 µM; IC50 [3]: 0.2 to 0.5 µM
"His-CD81-LEL (large extracellular loop of CD81, his-tagged) (domain or fragment)",–,response units bound [4]: 106 RU
NSC# 144694 [compound 144694],118.8,–
